# According to patent publication US20250042897A1, “HETEROCYCLIC COMPOUNDS AS TRIGGERING RECEPTOR EXPRESSED ON MYELOID CELLS 2 AGONISTS AND METHODS OF USE” (Vigil Neuroscience, Inc., priority 2021, published 2025):
# Biological target: T1, human TREM2 (Homo sapiens, UniProt Q9NZC2)
# T1 construct: expressed in transfected cells; host or cells: HEK293T
# Test: hTREM2 agonist potency by cellular Syk phosphorylation (AlphaLisa) in HEK293T-hTREM2 cells
# Format: cell-based
# Details: HEK293 cells expressing human TREM2 and DAP12, pSyk AlphaLisa, 45 minutes at room temperature
# Protocol: In Vitro Measurement of Triggering Receptor Expressed on Myeloid Cells 2 Activity Using Cellular Phosphorylation of Spleen Tyrosine Kinase (“Syk”) Assays
# Measurement of TREM2 agonist potency was done using a HEK cell line expressing human TREM2 and DAP12 (HEK293T-hTREM2 cells). Binding of small molecules to, and activation of, TREM2 increases the phosphorylation of Syk. The resultant levels of Syk phosphorylation are measured using a commercial AlphaLisa reagent kit. To perform the assay, HEK-hTREM2 cells were plated at 14,000 cells per well in a 384 well plate, in 25 μL of complete growth media and incubated at 37° C., 5% CO2 for 20-24 hours.
# Prior to the assay, test compounds were diluted in the 384 well plates in assay buffer and allowed to equilibrate for 30 minutes. Growth media was removed from cell plates by inversion on blotting paper, and 25 μL of test articles in assay buffer was added to cells. Cells were incubated for 45 minutes at room temperature. After 45 minutes, assay buffer was removed and 10 μL of lysis buffer was added. Plates were shaken for 20 minutes at 350 RPM at room temperature. After complete lysis, AlphaLisa reagents were added to the lysate, and fluorescence intensity was measured using a Perkin Elmer Envision plate reader. Intensities were used to generate a standard curve, and % activation was calculated. Curve fitting was performed using Prism v9 software, log (agonist) vs response-variable slope (four parameters), and EC50s were calculated from the curve fit.
# The results presented in Table D have been generated with the in vitro assay described above. This assay may be used to test any of the compounds described herein to assess and characterize a compound's ability to act as an agonist of TREM2.
# T1 sequence (Q9NZC2 19-230): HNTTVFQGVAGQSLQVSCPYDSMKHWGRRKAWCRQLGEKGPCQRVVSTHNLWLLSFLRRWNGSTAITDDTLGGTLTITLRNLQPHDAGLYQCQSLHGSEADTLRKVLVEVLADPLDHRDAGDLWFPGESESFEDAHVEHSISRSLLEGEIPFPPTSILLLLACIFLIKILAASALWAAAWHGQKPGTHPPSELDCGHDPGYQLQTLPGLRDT
# T1 sequence (O43914 22-113 partner): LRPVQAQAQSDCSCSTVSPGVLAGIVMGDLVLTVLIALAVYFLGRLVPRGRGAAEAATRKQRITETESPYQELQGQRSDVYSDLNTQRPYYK
Structure (SMILES),EC50 (Table D-2) [nM],EC50 (Table D) [nM]
"CCn1ncc2c(-c3ccc(Cl)cc3F)nc(N3C[C@@H](C)O[C@@H](c4cnn(C5CC5)c4)C3)nc2c1=O [I-193, 4-(4-chloro-2-fluorophenyl)-2-((2S, 6R)-2-(1-cyclopropyl-1H-pyrazol-4-yl)-6-methylmorpholino)-7-ethyl-pyrimido[4,5-d]pyridazin-8 (7H)-one]",≤ 50,–
"C[C@@H]1CN(c2nc(-c3ccc(C(F)(F)F)nc3)c3cnn(C)c(=O)c3n2)C[C@H](c2cnn(C3CC3)c2)O1 [I-198, 2-[(2S, 6R)-2-(1-cyclopropylpyrazol-4-yl)-6-methyl-morpholin-4-yl]-7-methyl-4-[6-(trifluoromethyl)-3-pyridyl]pyrimido[4,5-d]pyridazin-8-one]",≤ 50,–
"Cc1ccc(-c2nc(N3C[C@@H](C)O[C@@H](c4cnn(C5CC5)c4)C3)nc3c(=O)n(C)ncc23)c(F)c1 [I-203, 2-((2S,6R)-2-(1-cyclopropyl-1H-pyrazol-4-yl)-6-methylmorpholino)-4-(2-fluoro-4-methylphenyl)-7-methylpyrimido[4,5-d]pyridazin-8 (7H)-one]",≤ 50,–
"Cc1nc2c(C3CCCCC3)nc(N3C[C@@H](C)O[C@@H](c4cnn(C5CC5)c4)C3)nc2c(=O)n1C [I-208, 8-cyclohexyl-6-((2S,6R)-2-(1-cyclopropyl-1H-pyrazol-4-yl)-6-methylmorpholino)-2,3-dimethylpyrimido[5,4-d]pyrimidin-4 (3H)-one]",≤ 50,–
"Cc1cc([C@H]2CN(c3nc(-c4ccc(F)cc4F)c4nc(C)n(C)c(=O)c4n3)C[C@@H](C)O2)ccn1 [I-213, 8-(2,4-difluorophenyl)-2,3-dimethyl-6-[(2R, 6S)-2-methyl-6-(2-methyl-4-pyridyl)morpholin-4-yl]pyrimido[5,4-d]pyrimidin-4-one]",≤ 50,–
"C[C@@H]1CN(c2nc(-c3cc(F)c(F)cc3F)c3cnn(C)c(=O)c3n2)C[C@H](c2cnn(C3CC3)c2)O1 [I-218, 2-((2S,6R)-2-(1-cyclopropyl-1H-pyrazol-4-yl)-6-methylmorpholino)-7-methyl-4-(2,4,5-trifluorophenyl)pyrimido[4,5-d]pyridazin-8 (7H)-one]",≤ 50,–

# Now from value to compound:
EC50 (Table D-2) [nM],EC50 (Table D) [nM],Structure (SMILES)
–,50 to 500,"Cc1nc2cc(N3CCOC(c4cc[nH]c(=O)c4)C3)nc(-c3ccc(F)cc3F)c2c(=O)n1C (centres unmarked) [compound 1, 5-(2,4-difluorophenyl)-2,3-dimethyl-7-(2-(2-oxo-1,2-dihydropyridin-4-yl)morpholino)pyrido[4,3-d]pyrimidin-4(3H)-one]"
–,50 to 500,"Cc1nc2cc(N3CCO[C@@H](c4cc[nH]c(=O)c4)C3)nc(-c3ccc(F)cc3F)c2c(=O)n1C [compound 2, (S)-5-(2,4-difluorophenyl)-2,3-dimethyl-7-(2-(2-oxo-1,2-dihydropyridin-4-yl)morpholino)pyrido[4,3-d]pyrimidin-4(3H)-one]"
–,3000 to 100000,"Cc1nc2cc(N3CCO[C@H](c4cc[nH]c(=O)c4)C3)nc(-c3ccc(F)cc3F)c2c(=O)n1C [compound 3, (R)-5-(2,4-difluorophenyl)-2,3-dimethyl-7-(2-(2-oxo-1,2-dihydropyridin-4-yl)morpholino)pyrido[4,3-d]pyrimidin-4(3H)-one]"
–,≤ 50,"Cc1nc2cc(N3CCOC(c4cc[nH]c(=O)c4)C3)nc(C34CC(C(F)(F)F)(C3)C4)c2c(=O)n1C (centres unmarked) [compound 4, 2,3-dimethyl-7-(2-(2-oxo-1,2-dihydropyridin-4-yl)morpholino)-5-(3-(trifluoromethyl)bicyclo[1.1.1]pentan-1-yl)pyrido[4,3-d]pyrimidin-4(3H)-one]"
–,500 to 3000,"Cc1nc2nc(-c3ccc(F)cc3F)cc(C3CCOC(c4cnn(C5CC5)c4)C3)c2c(=O)n1C (centres unmarked) [compound 5, 5-(2-(1-cyclopropyl-1H-pyrazol-4-yl)tetrahydro-2H-pyran-4-yl)-7-(2,4-difluorophenyl)-2,3-dimethylpyrido[2,3-d]pyrimidin-4(3H)-one]"
